The values that follow come from patent US20180370912A1, “COMPOUNDS AND METHODS FOR TREATING DISEASES MEDIATED BY PROTEIN DISULFIDE ISOMERASE” (Beth Israel Deaconess Medical Center, Inc., priority 2017, published 2018).

One assay relates to tumor growth. The note with it: murine model ovarian cancer, Xu et al. 2012; cited from earlier work.
A further assay addresses T1, abb′x fragment of PDI (Homo sapiens, UniProt P07237).
T1 construct: 1.25 μg of the abb′x fragment; His; made in house; host or cells: Escherichia coli Origami B (DE3), pET-15b
T1 sequence (P07237 18-368 limits assumed): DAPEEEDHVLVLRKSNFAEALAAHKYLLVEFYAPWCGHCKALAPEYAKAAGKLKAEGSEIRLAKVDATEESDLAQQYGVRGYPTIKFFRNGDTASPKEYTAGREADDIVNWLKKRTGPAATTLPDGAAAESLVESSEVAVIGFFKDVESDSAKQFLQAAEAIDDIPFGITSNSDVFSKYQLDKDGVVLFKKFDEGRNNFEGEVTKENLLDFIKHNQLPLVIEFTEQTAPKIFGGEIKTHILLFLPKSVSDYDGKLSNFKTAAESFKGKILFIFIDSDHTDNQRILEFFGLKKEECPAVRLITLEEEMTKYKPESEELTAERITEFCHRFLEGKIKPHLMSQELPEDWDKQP
Kind of assay: Proteolysis assay with proteinase K. The method, then: Proteinase K (2 μg/mL) was incubated with 1.25 μg of the abb′x fragment in 50 mM Tris-HCl containing 5 mM CaCl2 and 10 mM DTT. Reactions were aborted with the addition of 0.5 mM phenylmethanesulfonyl fluoride (PMSF). Subsequently, samples were subjected to Laemmli Sample buffer with 5% β-mercaptoethanol and heated at 95° C. for 10 minutes. Each sample was loaded on a 12% SDS-PAGE gel, followed by silver staining using the Pierce Silver Stain Kit (Thermo Scientific).

A further assay concerns the target T2, full-length PDI (Homo sapiens, UniProt P07237).
T2 construct: FLAG; made in house; host or cells: Escherichia coli Origami B (DE3), pET-15b
Kind of assay: Small-angle X-ray scattering (SAXS). The method, then: Further purification of full-length PDI was achieved by gel filtration. PDI (1.5, 3.0 and 4.5 mg/mL) was dialyzed against 20 mM Tris, 150 mM NaCl, 5% glycerol (pH: 8.0) containing 0.5 mM bepristat 1b or 2b or DMSO control at 4° C. overnight. Evaluation by SAXS was performed on the SIBYLS beamline in the Advanced Light Source using a high throughput data collection method.

T2 sequence (P07237 18-508): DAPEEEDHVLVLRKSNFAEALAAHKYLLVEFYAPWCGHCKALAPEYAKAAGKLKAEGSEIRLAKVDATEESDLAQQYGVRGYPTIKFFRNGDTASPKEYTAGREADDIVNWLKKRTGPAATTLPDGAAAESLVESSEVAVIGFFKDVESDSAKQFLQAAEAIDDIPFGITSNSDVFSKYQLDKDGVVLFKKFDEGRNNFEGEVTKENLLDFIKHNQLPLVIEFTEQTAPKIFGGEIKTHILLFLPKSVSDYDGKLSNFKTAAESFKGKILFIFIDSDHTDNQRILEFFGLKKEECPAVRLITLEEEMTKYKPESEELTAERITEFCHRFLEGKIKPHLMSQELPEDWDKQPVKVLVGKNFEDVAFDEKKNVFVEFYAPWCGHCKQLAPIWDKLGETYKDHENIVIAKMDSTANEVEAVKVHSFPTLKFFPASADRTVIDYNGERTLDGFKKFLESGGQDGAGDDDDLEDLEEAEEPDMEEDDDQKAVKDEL

Turning to `C#CC(=O)N(c1ccc(OC)cc1OC)C(C(=O)NCC(=O)OCC)c1cccs1` (stereo not shown) [PACMA-31, N-(2,4-Dimethoxyphenyl)-N-(1-oxo-2-propyn-1-yl)-2-(2-thienyl)glycyl-glycine ethyl ester, reference compound], the tumor growth result in the assay on tumor growth is given as “impairs tumor growth”.
`CCOC(=O)c1c(CNCCN(CC)CC)n(-c2ccccc2)c2cc(Br)c(O)cc12` [bepristat 2a]: the “proteinase K activity (cleavage of ERp5)” value on abb′x fragment of PDI (control, not shown) is listed as “did not interfere with proteinase K activity”. The “cleavage of abb′x by proteinase K” value at abb′x fragment of PDI (presence versus absence of compound, FIG. 5b) is “occurred more rapidly”. The “PDI conformation by SAXS” value on full-length PDI was “more compact conformation”.
